Reference: patent publication US20020137929A1, “1 - (3-heterocyclylphenyl) isothiourea, -isourea, -guanidine and -amidine herbicidal agents” (Intellectual Property Department, BASF Aktiengesellschaft, priority 1998, published 2002)

What was measured:
[1] = tested on: ORYSAT (Rice, Tebonnet); assay: Postemergence herbicidal evaluation; type: in vivo, Oryza sativa, (L.) Tebonnet; details: postemergence
In short: (§1)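 First, seedlings were raised for around two weeks. Next, test material in 50/50 acetone/water containing 0.5% TWEEN 20 was sprayed through a nozzle at 40 psi, equivalent to about 0.0156–0.500 kg/ha. Finally, after 4–5 weeks in the greenhouse, plants were rated 0–9.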

[2] = tested on: ZEAMX (Corn, Field); assay: Preemergence herbicidal evaluation; type: in vivo, Zea mays; details: rated 4-5 weeks after treatment
In short: (§2)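 Visual 0-9 rating vs control (stand, vigor, malformation, size, chlorosis, overall appearance), scored 4-5 wk after spraying. Seeded soil cups were treated preemergence with compound in aqueous acetone, ~0.0156-0.500 kg/ha equivalent.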

[3] = tested on: CYPSE (Flatsedge); assay: Preemergence weed control under flooded paddy conditions; type: in vivo, Cyperus serotinus; details: rated 3-4 weeks after treatment
In short: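 Using flooded silt loam (water 1.5 to 3 cm deep), seeds sown in the top 0.5 cm were exposed preemergence to compound pipetted into the flood at about 0.0313 to 0.500 kg/ha. Effects were scored 0-9 by eye three to four weeks later.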

[4] = tested on: ZEAMX (Corn, Field); assay: Postemergence herbicidal evaluation; type: in vivo, Zea mays; details: postemergence
In short: as §1

[5] = tested on: SETVI (Foxtail, Green); assay: Preemergence herbicidal evaluation; type: in vivo, Setaria viridis; details: rated 4-5 weeks after treatment
In short: as §2

[6] = tested on: TRZAWR (Wheat, Winter, cv Riband); assay: Preemergence herbicidal evaluation; type: in vivo, Triticum aestivum; details: rated 4-5 weeks after treatment
In short: as §2

[7] = tested on: ECHCG (Barnyardgrass); assay: Preemergence herbicidal evaluation; type: in vivo, Echinochloa crus-galli; details: rated 4-5 weeks after treatment
In short: as §2

[8] = tested on: SETVI (Foxtail, Green); assay: Postemergence herbicidal evaluation; type: in vivo, Setaria viridis; details: postemergence
In short: as §1

[9] = tested on: ECHORC (Watergrass (Calif.)); assay: Preemergence weed control under flooded paddy conditions; type: in vivo, Echinochloa oryzoides; details: rated 3-4 weeks after treatment
In short: (§3)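 Herbicidal effect is scored visually on a 0-9 scale against an untreated control, three to four weeks after compounds are pipetted into the flood water (1.5 to 3 cm deep) over seeds planted in silt loam at 0.5 cm depth. Rates: about 0.0313 to 0.500 kg/ha.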

[10] = tested on: CYPIR (Rice Flatsedge); assay: as above; type: in vivo, Cyperus iria; details: rated 3-4 weeks after treatment
In short: as §3

## Cn1c(C(F)(F)F)cc(=O)n(-c2cc(N=C3SCC(=O)N3CC(F)(F)F)c(Cl)cc2F)c1=O [Compound 163, 3-{4-Chloro-2-fluoro-5-{[4-oxo-3-(2,2,2-trifluoroethyl)-2-thiazolidinylidene]amino}phenyl}-1-methyl-6-(trifluoromethyl)-2,4(1H,3H)-pyrimidinedione]
[1]; rate 0.0156 kg/ha
  herbicidal rating ORYSAT: 1.0
[1]; rate 0.0313 kg/ha
  herbicidal rating ORYSAT: 1.5
[1]; rate 0.0625 kg/ha
  herbicidal rating ORYSAT: 2.0
[2]; 0.0156 kg/ha
  Preemergence herbicidal rating ZEAMX: 5.0
[2]; 0.0313 kg/ha
  Preemergence herbicidal rating ZEAMX: 5.0
[2]; 0.0625 kg/ha
  Preemergence herbicidal rating ZEAMX: 7.0
[2]; 0.1250 kg/ha
  Preemergence herbicidal rating ZEAMX: 7.0
[2]; 0.2500 kg/ha
  Preemergence herbicidal rating ZEAMX: 8.0
[3]; 0.1250 kg/ha
  herbicidal effect rating, CYPSE: 9.0
[3]; 0.2500 kg/ha
  herbicidal effect rating, CYPSE: 9.0
[4]; rate 0.0156 kg/ha
  herbicidal rating ZEAMX: 5.0
[4]; rate 0.0313 kg/ha
  herbicidal rating ZEAMX: 5.5
[4]; rate 0.0625 kg/ha
  herbicidal rating ZEAMX: 5.5
[5]; 0.0156 kg/ha
  Preemergence herbicidal rating SETVI: 9.0
[5]; 0.0313 kg/ha
  Preemergence herbicidal rating SETVI: 9.0
[5]; 0.0625 kg/ha
  Preemergence herbicidal rating SETVI: 9.0
[5]; 0.1250 kg/ha
  Preemergence herbicidal rating SETVI: 9.0
[5]; 0.2500 kg/ha
  Preemergence herbicidal rating SETVI: 9.0
[6]; 0.0156 kg/ha
  Preemergence herbicidal rating TRZAWR: 0.0
[6]; 0.0313 kg/ha
  Preemergence herbicidal rating TRZAWR: 0.0
[6]; 0.0625 kg/ha
  Preemergence herbicidal rating TRZAWR: 3.0
[6]; 0.1250 kg/ha
  Preemergence herbicidal rating TRZAWR: 7.0
[6]; 0.2500 kg/ha
  Preemergence herbicidal rating TRZAWR: 7.0
[7]; 0.0156 kg/ha
  Preemergence herbicidal rating ECHCG: 2.0
[7]; 0.0313 kg/ha
  Preemergence herbicidal rating ECHCG: 4.0
[7]; 0.0625 kg/ha
  Preemergence herbicidal rating ECHCG: 7.0
[7]; 0.1250 kg/ha
  Preemergence herbicidal rating ECHCG: 8.0
[7]; 0.2500 kg/ha
  Preemergence herbicidal rating ECHCG: 9.0
[8]; rate 0.0156 kg/ha
  herbicidal rating SETVI: 0.0
[8]; rate 0.0625 kg/ha
  herbicidal rating SETVI: 3.0
[9]; 0.0313 kg/ha
  herbicidal effect rating, ECHORC: 9.0
[9]; 0.0625 kg/ha
  herbicidal effect rating, ECHORC: 9.0
[9]; 0.1250 kg/ha
  herbicidal effect rating, ECHORC: 9.0
[9]; 0.2500 kg/ha
  herbicidal effect rating, ECHORC: 9.0
[10]; 0.0313 kg/ha
  herbicidal effect rating, CYPIR: 6.0
[10]; 0.0625 kg/ha
  herbicidal effect rating, CYPIR: 7.0
[10]; 0.1250 kg/ha
  herbicidal effect rating, CYPIR: 9.0
[10]; 0.2500 kg/ha
  herbicidal effect rating, CYPIR: 9.0

## C#CC(C)N1C(=O)CSC1=Nc1cc(-n2c(=O)cc(C(F)(F)F)n(C)c2=O)c(F)cc1Cl (stereo not shown) [Compound 165, 3-{4-Chloro-2-fluoro-5-{[3-(1-methyl-2-propynyl)-4-oxo-2-thiazolidinylidene]amino}phenyl}-1-methyl-6-(trifluoromethyl)-2,4(1H,3H)-pyrimidinedione]
[1]; rate 0.0156 kg/ha
  herbicidal rating ORYSAT: 2.0
[1]; rate 0.0313 kg/ha
  herbicidal rating ORYSAT: 1.5
[1]; rate 0.0625 kg/ha
  herbicidal rating ORYSAT: 3.0
[1]; rate 0.1250 kg/ha
  herbicidal rating ORYSAT: 4.0
[2]; 0.0156 kg/ha
  Preemergence herbicidal rating ZEAMX: 0.0
[2]; 0.0313 kg/ha
  Preemergence herbicidal rating ZEAMX: 0.0
[2]; 0.0625 kg/ha
  Preemergence herbicidal rating ZEAMX: 1.0
[2]; 0.1250 kg/ha
  Preemergence herbicidal rating ZEAMX: 1.0
[2]; 0.2500 kg/ha
  Preemergence herbicidal rating ZEAMX: 4.0
[2]; 0.5000 kg/ha
  Preemergence herbicidal rating ZEAMX: 7.0
[3]; 0.0313 kg/ha
  herbicidal effect rating, CYPSE: 0.0
[3]; 0.1250 kg/ha
  herbicidal effect rating, CYPSE: 0.0
[3]; 0.2500 kg/ha
  herbicidal effect rating, CYPSE: 3.0
[4]; rate 0.0156 kg/ha
  herbicidal rating ZEAMX: 4
[4]; rate 0.0313 kg/ha
  herbicidal rating ZEAMX: 5.0
[4]; rate 0.0625 kg/ha
  herbicidal rating ZEAMX: 5.0
[4]; rate 0.1250 kg/ha
  herbicidal rating ZEAMX: 5.5
[5]; 0.0156 kg/ha
  Preemergence herbicidal rating SETVI: 0.0
[5]; 0.0313 kg/ha
  Preemergence herbicidal rating SETVI: 6.0
[5]; 0.0625 kg/ha
  Preemergence herbicidal rating SETVI: 6.0
[5]; 0.1250 kg/ha
  Preemergence herbicidal rating SETVI: 9.0
[5]; 0.2500 kg/ha
  Preemergence herbicidal rating SETVI: 9.0
[5]; 0.5000 kg/ha
  Preemergence herbicidal rating SETVI: 9.0
[6]; 0.0156 kg/ha
  Preemergence herbicidal rating TRZAWR: 0.0
[6]; 0.0313 kg/ha
  Preemergence herbicidal rating TRZAWR: 0.0
[6]; 0.0625 kg/ha
  Preemergence herbicidal rating TRZAWR: 0.0
[6]; 0.1250 kg/ha
  Preemergence herbicidal rating TRZAWR: 1.0
[6]; 0.2500 kg/ha
  Preemergence herbicidal rating TRZAWR: 2.0
[6]; 0.5000 kg/ha
  Preemergence herbicidal rating TRZAWR: 4.0
[7]; 0.0156 kg/ha
  Preemergence herbicidal rating ECHCG: 0.0
[7]; 0.0313 kg/ha
  Preemergence herbicidal rating ECHCG: 0.0
[7]; 0.0625 kg/ha
  Preemergence herbicidal rating ECHCG: 0.0
[7]; 0.1250 kg/ha
  Preemergence herbicidal rating ECHCG: 3.0
[7]; 0.2500 kg/ha
  Preemergence herbicidal rating ECHCG: 6.0
[7]; 0.5000 kg/ha
  Preemergence herbicidal rating ECHCG: 7.0
[8]; rate 0.0156 kg/ha
  herbicidal rating SETVI: 2.0
[8]; rate 0.0313 kg/ha
  herbicidal rating SETVI: 6.0
[8]; rate 0.0625 kg/ha
  herbicidal rating SETVI: 9.0
[8]; rate 0.1250 kg/ha
  herbicidal rating SETVI: 7.0
[9]; 0.0313 kg/ha
  herbicidal effect rating, ECHORC: 9.0
[9]; 0.0625 kg/ha
  herbicidal effect rating, ECHORC: 9.0
[9]; 0.1250 kg/ha
  herbicidal effect rating, ECHORC: 9.0
[9]; 0.2500 kg/ha
  herbicidal effect rating, ECHORC: 9.0
[10]; 0.0313 kg/ha
  herbicidal effect rating, CYPIR: 6.0
[10]; 0.0625 kg/ha
  herbicidal effect rating, CYPIR: 7.0
[10]; 0.1250 kg/ha
  herbicidal effect rating, CYPIR: 9.0
[10]; 0.2500 kg/ha
  herbicidal effect rating, CYPIR: 9.0
